Earlier results in patent publication US20060252804A1, “Flupirtin injectable galenic form” (AWD.pharma GMBH &Co. KG, priority 2003, published 2006).

Settings: in aqueous solutions and in most physiologically tolerated organic solvents

SMILES: CCOC(=O)Nc1ccc(NCc2ccc(F)cc2)nc1N [flupirtine, 2-amino-3-carbethoxyamino-6-(4-fluorobenzylamino)pyridine]
- solubility: scarcely soluble
